Experiment: Stability assessed as half life at pH 7.4
Assay type: physicochemical
Conditions: buffer

Structure (SMILES): CC(Cc1ccc(O)c(O)c1)C(C)Cc1ccc(O)c(O)c1 (stereo unspecified) [NORDIHYDROGUAIARETIC ACID]
- half-life: 3 h

— ChEMBL document CHEMBL1156599, “Nordihydroguaiaretic acid autoxidation produces a schisandrin-like dibenzocyclooctadiene lignan” (J Nat Prod, 2008)
